# Measured values reported in US9353051B2, “Antiviral drugs for treatment or prevention of dengue infection” (Siga Technologies Inc., priority 2007, dated 2016).
# Where two headings read alike, the source gives them in different places.
# Tested on: Dengue-2 (Strain New Guinea C)
# Assay: viral yield assay against Dengue-2 in Vero cells
# Type: cell-based
# Conditions: Dengue virus; for EC90: read-out: EC90 Yield Den-2
# Description: Compounds that were active in the primary screen were also tested for activity in viral yield assays. […] Vero cells in 12-well plates were infected with dengue-2 virus at a multiplicity of infection (MOI) of 0.1, treated with compound (or DMSO as a control), incubated at 37° C., harvested 48 hours post infection and titered on Vero cells as described above. The EC50 was calculated through ExcelFit. Those compounds with activity below 1 μM are indicated with “A”, those with activity between 1 and 10 μM are indicated with “B”, those with activity between 10 and 25 μM with “C”, and those with activity above 25 μM are indicated with “D”.
# [1] = Vero cells, MOI 0.1, harvested 48 hours post infection, read-out: Activity (anti-dengue 2 viral activity, EC50)
Structure (SMILES),EC50 [1],also measured
"CC1CC(C)CN(S(=O)(=O)c2ccc(NC(=O)Cn3cnc4ccccc4c3=O)cc2)C1 (stereo not shown) [Compound 19, N-[4-(3,5-Dimethyl-piperidine-1-sulfonyl)-phenyl]-2-(4-oxo-4H-quinazolin-3-yl)-acetamide]",1 to 10 µM,
"NS(=O)(=O)c1cccc(NC(=O)Cn2nnc3ccccc3c2=O)c1 [Compound 131, 2-(4-Oxo-4H-benzo[d][1,2,3]triazin-3-yl)-N-(3-sulfamoyl-phenyl)-acetamide]",> 25 µM,
"CCN(CC)S(=O)(=O)c1ccc(OC)c(NC(=O)Cn2nnc3ccccc3c2=O)c1 [Compound 20, N-(5-Diethylsulfamoyl-2-methoxy-phenyl)-2-(4-oxo-4H-benzo[d][1,2,3]triazin-3-yl)-acetamide]",1 to 10 µM,"EC50 (Vero, read-out: EC50 Yield Den-2): 1.3 µM; EC90 (Vero): 20 µM"
"CCN(CC)S(=O)(=O)c1ccc(OC)c(NC(=O)Cn2cnc3ccccc3c2=O)c1 [Compound 91, N-(5-Diethylsulfamoyl-2-methoxy-phenyl)-2-(4-oxo-4H-quinazolin-3-yl)-acetamide]",> 25 µM,
"CN(C)S(=O)(=O)c1ccc(NC(=O)Cn2nnc3ccccc3c2=O)cc1 [Compound 85, N-(4-Dimethylsulfamoyl-phenyl)-2-(4-oxo-4H-benzo[d][1,2,3]triazin-3-yl)-acetamide]",> 25 µM,
"CCc1cc2c(=O)n(CC(=O)Nc3ccc(S(=O)(=O)N(CC)CC)cc3)cnc2s1 [Compound 11, N-(4-Diethylsulfamoyl-phenyl)-2-(6-ethyl-4-oxo-4H-thieno[2,3-d]pyrimidin-3-yl)-acetamide]",1 to 10 µM,"EC50 (viral yield assay, Vero cells, read-out: EC50 Yield Den-2): 4.9 µM; EC90 (viral yield assay, Vero cells): > 50 µM"
"NS(=O)(=O)c1ccc(NC(=O)Cn2cnc3cc([N+](=O)[O-])ccc3c2=O)cc1 [Compound 110, 2-(7-Nitro-4-oxo-4H-quinazolin-3-yl)-N-(4-sulfamoyl-phenyl)-acetamide]",> 25 µM,
"NS(=O)(=O)c1ccc(NC(=O)Cn2cnc3ccccc3c2=O)cc1 [Compound 38, 2-(4-Oxo-4H-quinazolin-3-yl)-N-(4-sulfamoyl-phenyl)-acetamide]",> 25 µM,
"CCN(CC)S(=O)(=O)c1ccc(NC(=O)Cn2cnc3scc(-c4ccccc4)c3c2=O)cc1 [Compound 59, N-(4-Diethylsulfamoyl-phenyl)-2-(4-oxo-5-phenyl-4H-thieno[2,3-d]pyrimidin-3-yl)-acetamide]",> 25 µM,
"CC1CCCC(C)N1S(=O)(=O)c1ccc(NC(=O)Cn2cnc3sccc3c2=O)cc1 (stereo not shown) [Compound 28, N-[4-(2,6-Dimethyl-piperidine-1-sulfonyl)-phenyl]-2-(4-oxo-4H-thieno[2,3-d]pyrimidin-3-yl)-acetamide]",10 to 25 µM,
"CC1CCCN(S(=O)(=O)c2ccc(NC(=O)Cn3cnc4ccccc4c3=O)cc2)C1 (stereo not shown) [Compound 53, N-[4-(3-Methyl-piperidine-1-sulfonyl)-phenyl]-2-(4-oxo-4H-quinazolin-3-yl)-acetamide]",> 25 µM,
"CCN(CC)S(=O)(=O)c1ccc(NC(=O)Cn2c(=O)n(CC)c(=O)c3ccccc32)cc1 [Compound 78, N-(4-Diethylsulfamoyl-phenyl)-2-(3-ethyl-2,4-dioxo-3,4-dihydro-2H-quinazolin-1-yl)-acetamide]",> 25 µM,
"CCN(CC)S(=O)(=O)c1ccc(O)c(NC(=O)Cn2nnc3ccccc3c2=O)c1 [Compound 94, N-(5-Diethylsulfamoyl-2-hydroxy-phenyl)-2-(4-oxo-4H-benzo[d][1,2,3]triazin-3-yl)-acetamide]",> 25 µM,
"CCN(CC)S(=O)(=O)c1ccc(NC(=O)CNC(=O)c2ccc(C)cc2)cc1 [Compound 72, N-[(4-Diethylsulfamoyl-phenylcarbamoyl)-methyl]-4-methyl-benzamide]",> 25 µM,
"CN(Cc1nc2ccccc2c(=O)[nH]1)C(=O)c1ccc(S(=O)(=O)N(C)C)cc1 [Compound 112, 4-Dimethylsulfamoyl-N-methyl-N-(4-oxo-3,4-dihydro-quinazolin-2-ylmethyl)-benzamide]",> 25 µM,
